Measured values published in patent publication US8741934B2, “Inhibitors of ion channels” (Pfizer Limited, priority 2007, dated 2014).

Molecular target: T1, hSCN3A sodium channels (Homo sapiens, UniProt Q9NY46)
T1 construct: expressed in transfected cells
Assay: hSCN3A electrophysiology, whole-cell patch-clamp or PatchXpress 7000, estimated IC-50 (Table B)
Format: cell-based
Settings: estimated IC-50; hSCN3A cells, whole-cell patch-clamp or PatchXpress 7000; read-out: SCN3A EIC-50
In short: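 Stably transfected HEK cells, whole-cell voltage clamp at 22-24° C, manual or PatchXpress 7000. Cells held at empirically determined inactivation V1/2; current evoked by 20 msec step to 0 mV after 8 sec prepulse to V1/2.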

T1 sequence (Q9NY46 whole entry): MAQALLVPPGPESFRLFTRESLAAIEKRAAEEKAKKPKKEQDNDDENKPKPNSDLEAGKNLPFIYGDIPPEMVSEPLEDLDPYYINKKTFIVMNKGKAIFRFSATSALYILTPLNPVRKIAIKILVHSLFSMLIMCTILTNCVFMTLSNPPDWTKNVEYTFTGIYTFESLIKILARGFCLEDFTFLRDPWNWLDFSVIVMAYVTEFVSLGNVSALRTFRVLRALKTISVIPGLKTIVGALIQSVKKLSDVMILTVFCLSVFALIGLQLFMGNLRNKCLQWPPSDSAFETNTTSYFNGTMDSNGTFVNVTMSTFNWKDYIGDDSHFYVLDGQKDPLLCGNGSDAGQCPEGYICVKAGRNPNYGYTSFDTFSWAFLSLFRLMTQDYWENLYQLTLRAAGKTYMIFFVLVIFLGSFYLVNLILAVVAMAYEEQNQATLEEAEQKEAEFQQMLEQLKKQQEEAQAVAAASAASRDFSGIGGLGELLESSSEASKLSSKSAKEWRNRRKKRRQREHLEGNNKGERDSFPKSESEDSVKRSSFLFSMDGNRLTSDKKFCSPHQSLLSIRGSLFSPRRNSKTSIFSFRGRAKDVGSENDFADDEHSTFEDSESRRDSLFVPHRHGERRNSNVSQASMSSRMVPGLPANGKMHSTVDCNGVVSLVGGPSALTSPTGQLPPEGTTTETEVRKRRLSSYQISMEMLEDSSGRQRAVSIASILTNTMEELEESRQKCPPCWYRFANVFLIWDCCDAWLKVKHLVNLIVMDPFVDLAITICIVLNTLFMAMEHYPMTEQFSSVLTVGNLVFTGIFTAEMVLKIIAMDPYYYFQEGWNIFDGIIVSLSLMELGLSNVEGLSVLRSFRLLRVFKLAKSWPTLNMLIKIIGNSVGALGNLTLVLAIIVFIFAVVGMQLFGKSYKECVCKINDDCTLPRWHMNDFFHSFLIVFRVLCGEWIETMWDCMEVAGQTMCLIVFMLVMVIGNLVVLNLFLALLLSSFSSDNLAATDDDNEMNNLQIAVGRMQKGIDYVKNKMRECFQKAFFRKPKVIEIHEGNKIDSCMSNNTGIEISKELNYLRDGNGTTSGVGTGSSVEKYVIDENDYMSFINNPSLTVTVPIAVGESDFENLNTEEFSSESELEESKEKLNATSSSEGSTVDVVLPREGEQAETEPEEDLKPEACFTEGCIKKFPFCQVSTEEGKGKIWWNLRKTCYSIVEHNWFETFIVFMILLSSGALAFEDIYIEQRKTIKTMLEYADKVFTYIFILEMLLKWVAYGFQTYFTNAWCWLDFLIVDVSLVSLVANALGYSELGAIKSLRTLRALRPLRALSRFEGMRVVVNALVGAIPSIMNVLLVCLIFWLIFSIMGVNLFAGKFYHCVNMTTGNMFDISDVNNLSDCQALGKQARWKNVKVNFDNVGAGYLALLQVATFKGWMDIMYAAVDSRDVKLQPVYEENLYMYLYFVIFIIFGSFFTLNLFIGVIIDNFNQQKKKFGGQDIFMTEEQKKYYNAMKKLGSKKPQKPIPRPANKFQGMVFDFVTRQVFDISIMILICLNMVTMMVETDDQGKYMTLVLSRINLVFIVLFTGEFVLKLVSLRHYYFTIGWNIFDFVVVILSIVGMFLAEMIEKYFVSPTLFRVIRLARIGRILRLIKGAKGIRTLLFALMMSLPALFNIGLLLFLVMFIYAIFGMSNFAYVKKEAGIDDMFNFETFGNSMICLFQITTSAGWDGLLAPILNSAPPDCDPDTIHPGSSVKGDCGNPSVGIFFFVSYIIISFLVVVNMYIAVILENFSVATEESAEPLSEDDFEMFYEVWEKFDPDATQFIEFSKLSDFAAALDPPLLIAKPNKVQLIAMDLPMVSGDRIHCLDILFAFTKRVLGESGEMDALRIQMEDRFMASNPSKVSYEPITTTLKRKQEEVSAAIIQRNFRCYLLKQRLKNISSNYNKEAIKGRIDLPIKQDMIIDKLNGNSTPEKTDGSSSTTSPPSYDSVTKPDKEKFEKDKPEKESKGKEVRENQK

Structure (SMILES)	IC50 [nM]
O=C(NCc1cccc(C(F)(F)F)c1F)c1ccc(S(=O)(=O)Nc2ncc(Cl)s2)cc1 [Example 40, 4-{[(5-Chloro-1,3-thiazol-2-yl)amino]sulfonyl}-N-[2-fluoro-3-(trifluoromethyl)benzyl]benzamide]	210
O=C(NCc1cccc(C(F)(F)F)c1)c1ccc(S(=O)(=O)Nc2nccs2)cc1F [Example 327, 2-Fluoro-4-[(1,3-thiazol-2-ylamino)sulfonyl]-N-[3-(trifluoromethyl)benzyl]benzamide]	260
O=C(c1ccc(S(=O)(=O)Nc2nccs2)cc1)N1CCO[C@H]2Cc3ccccc3[C@H]21 [Example 52, 4-[(4aR,9aS)-2,3,9,9a-tetrahydroindeno[2,1-b][1,4]oxazin-4(4aH)-ylcarbonyl]-N-1,3-thiazol-2-ylbenzenesulfonamide]	2910
O=C(NCc1cccc(OC(F)F)c1)c1ccc(S(=O)(=O)Nc2nccs2)cc1 [Example 63, N-[3-(difluoromethoxy)benzyl]-4-[(1,3-thiazol-2-ylamino)sulfonyl]benzamide]	1090
O=C(NCc1cccc(C(F)(F)F)c1)c1ccc(S(=O)(=O)Nc2nccs2)c(F)c1 [Example 302, 3-Fluoro-4-[(1,3-thiazol-2-ylamino)sulfonyl]-N-[3-(trifluoromethyl)benzyl]benzamide]	350
Cc1nn(C)c(C)c1NS(=O)(=O)c1ccc(C(=O)NCc2ccc(C(F)(F)F)cc2)cc1 [Example 27, N-[4-(Trifluoromethyl)benzyl]-4-{[(1,3,5-trimethyl-1H-pyrazol-4-yl)amino]sulfonyl}benzamide]	23300
O=C(NCc1ccc(C(F)(F)F)cc1)c1ccc(S(=O)(=O)Nc2ncns2)cc1Cl [Example 377, 2-Chloro-4-[(1,2,4-thiadiazol-5-ylamino)sulfonyl]-N-[4-(trifluoromethyl)benzyl] benzamide]	850
Cn1nc(Cc2ccc(Cl)cc2)cc1NC(=O)c1ccc(S(=O)(=O)Nc2ncc(Cl)s2)c(F)c1 [Example 379, N-[3-(4-chlorobenzyl)-1-methyl-1H-pyrazol-5-yl]-4-{[(5-chloro-1,3-thiazol-2-yl)-amino]sulfonyl}-3-fluorobenzamide]	20
O=C(NCc1ccc(C(F)(F)F)c(Cl)c1)c1ccc(S(=O)(=O)Nc2ncns2)cc1Cl [Example 374, 2-Chloro-N-[3-chloro-4-(trifluoromethyl)benzyl]-4-[(1,2,4-thiadiazol-5-ylamino)sulfonyl]benzamide]	230
O=C(NCc1ccc(Cl)c(F)c1)c1ccc(S(=O)(=O)Nc2nccs2)c(F)c1 [Example 295, N-(4-chloro-3-fluorobenzyl)-3-fluoro-4-[(1,3-thiazol-2-ylamino)sulfonyl]benzamide]	220
O=C(NCc1ccc(C(F)(F)F)cc1)c1ccc(S(=O)(=O)Nc2nncs2)cc1 [Example 21, 4-[(1,3,4-Thiadiazol-2-ylamino)sulfonyl]-N-[4-(trifluoromethyl)benzyl]benzamide]	1970
Cc1ccc(OC2CCCN(C(=O)c3ccc(S(=O)(=O)Nc4nccs4)cc3)C2)cc1 (centres unmarked) [Example 249, 4-{[3-(4-mMethylphenoxy)piperidin-1-yl]carbonyl}-N-1,3-thiazol-2-yl-benzenesulfonamide]	1660
N#Cc1cc(S(=O)(=O)Nc2ncc(Cl)s2)ccc1C(=O)NCc1ccc(C(F)(F)F)c(F)c1 [Example 348, 4-{[(5-Chloro-1,3-thiazol-2-yl)amino]sulfonyl}-2-cyano-N-[3-fluoro-4-(trifluoromethyl)benzyl]benzamide]	1580
O=C(NCc1ccc(C(F)(F)F)c(F)c1)c1ccc(S(=O)(=O)Nc2ncc(Cl)s2)c(Cl)c1 [Example 366, 3-Chloro-4-{[(5-chloro-1,3-thiazol-2-yl)amino]sulfonyl}-N-[3-fluoro-4-(trifluoromethyl)benzyl] benzamide]	730
CC(C)(C)c1ccc(CNC(=O)c2ccc(S(=O)(=O)Nc3nccs3)cc2)cc1 [Example 387, N-(4-tert-butylbenzyl)-4-[(1,3-thiazol-2-ylamino)sulfonyl]benzamide]	170
CC(NC(=O)c1ccc(S(=O)(=O)Nc2ncns2)c(F)c1)c1ccc(C(F)(F)F)cc1 (centres unmarked) [Example 320, 3-Fluoro-4-[(1,2,4-thiadiazol-5-ylamino)sulfonyl]-N-{1-[4-(trifluoromethyl)phenyl]ethyl}benzamide]	2660
N#Cc1cc(CNC(=O)c2ccc(S(=O)(=O)Nc3nccs3)cc2)ccc1F [Example 55, N-(3-cyano-4-fluorobenzyl)-4-[(1,3-thiazol-2-ylamino)sulfonyl]benzamide]	1410
O=C(NCc1cccc(OC(F)(F)F)c1)c1ccc(S(=O)(=O)Nc2nccs2)c(F)c1 [Example 296, 3-Fluoro-4-[(1,3-thiazol-2-ylamino)sulfonyl]-N-[3-(trifluoromethoxy)benzyl]benzamide]	190
O=C(NCc1ccc(Cl)c(F)c1)c1ccc(S(=O)(=O)Nc2ncc(Cl)s2)cc1F [Example 355, N-(4-chloro-3-fluorobenzyl)-4-{[(5-chloro-1,3-thiazol-2-yl)amino]sulfonyl}-2-fluorobenzamide]	150

Structure (SMILES)	IC50 [nM]
O=C(NCc1ccccc1SC(F)(F)F)c1ccc(S(=O)(=O)Nc2nccs2)cc1 [Example 122, 4-[(1,3-Thiazol-2-ylamino)sulfonyl]-N-{2-[(trifluoromethyl)thio]benzyl}benzamide]	1300
COc1ccccc1C1CCCN1C(=O)c1ccc(S(=O)(=O)Nc2nccs2)cc1 (centres unmarked) [Example 254, 4-{[2-(2-Methoxyphenyl)pyrrolidin-1-yl]carbonyl}-N-1,3-thiazol-2-yl-benzenesulfonamide]	> 1000
O=C(NCc1ccc(F)c(Cl)c1)c1ccc(S(=O)(=O)Nc2nccs2)c(Cl)c1 [Example 294, 3-Chloro-N-(3-chloro-4-fluorobenzyl)-4-[(1,3-thiazol-2-yl-amino)sulfonyl]benzamide]	1840
O=C(NCc1ccc(Cl)c(F)c1)c1ccc(S(=O)(=O)Nc2nccs2)c(Cl)c1 [Example 292, 3-Chloro-N-(4-chloro-3-fluorobenzyl)-4-[(1,3-thiazol-2-yl-amino)sulfonyl]benzamide]	900
O=C(NCc1ccc(Cl)c(F)c1)c1ccc(S(=O)(=O)Nc2nccs2)cc1F [Example 334, N-(4-chloro-3-fluorobenzyl)-2-fluoro-4-[(1,3-thiazol-2-ylamino)sulfonyl] benzamide]	340
CC(C)(NC(=O)c1ccc(S(=O)(=O)Nc2nccs2)cc1)c1ccc(C(F)(F)F)cc1 [Example 123, N-{1-methyl-1-[4-(trifluoromethyl)phenyl]ethyl}-4-[(1,3-thiazol-2-ylamino)sulfonyl]benzamide]	1440
O=C(NCc1ccc(F)cc1)c1ccc(S(=O)(=O)Nc2nccs2)cc1 [Example 92, N-(4-fluorobenzyl)-4-[(1,3-thiazol-2-ylamino)sulfonyl]benzamide]	580
O=C(NCc1ccc(F)c(Cl)c1)c1ccc(S(=O)(=O)Nc2ncc(Cl)s2)cc1 [Example 36, N-(3-Chloro-4-fluorobenzyl)-4-{[(5-chloro-1,3-thiazol-2-yl)amino]sulfonyl}benzamide]	70
O=C(NCc1ccc(C(F)(F)F)c(F)c1)c1ccc(S(=O)(=O)Nc2ncns2)cc1Cl [Example 375, 2-Chloro-N-[3-fluoro-4-(trifluoromethyl)benzyl]-4-[(1,2,4-thiadiazol-5-ylamino)sulfonyl]benzamide]	450
Cc1ccc(Cl)cc1CNC(=O)c1ccc(S(=O)(=O)Nc2nccs2)cc1 [Example 64, N-(5-chloro-2-methylbenzyl)-4-[(1,3-thiazol-2-ylamino)sulfonyl]benzamide]	450
O=C(NCc1ccc(C(F)(F)F)c(Cl)c1)c1ccc(S(=O)(=O)Nc2nccs2)c(F)c1 [Example 306, N-[3-chloro-4-(trifluoromethyl)benzyl]-3-fluoro-4-[(1,3-thiazol-2-ylamino)sulfonyl]benzamide]	40
O=C(NCc1ccc(C(F)(F)F)c(Cl)c1)c1ccc(S(=O)(=O)Nc2ncns2)cc1 [Example 324, N-[3-chloro-4-(trifluoromethyl)benzyl]-4-[(1,2,4-thiadiazol-5-ylamino)sulfonyl]benzamide]	30
COc1ccc(CNC(=O)c2ccc(S(=O)(=O)Nc3nccs3)cc2)cc1 [Example 176, N-(4-methoxybenzyl)-4-[(1,3-thiazol-2-ylamino)sulfonyl]benzamide]	4500
O=C(NCc1ccc(C(F)(F)F)cc1)c1ccc(S(=O)(=O)Nc2ncc(Cl)s2)c(Cl)c1 [Example 373, 3-Chloro-4-{[(5-chloro-1,3-thiazol-2-yl)amino]sulfonyl}-N-[4-(trifluoromethyl)benzyl] benzamide]	490
Cc1noc(C)c1NS(=O)(=O)c1ccc(C(=O)NCc2ccc(C(F)(F)F)cc2)cc1 [Example 26, 4-{[(3,5-Dimethylisoxazol-4-yl)amino]sulfonyl}-N-[4-(trifluoromethyl)benzyl]benzamide]	> 10000
O=C(NCc1ccc(Cl)c(Cl)c1)c1ccc(S(=O)(=O)Nc2ncc(Cl)s2)cc1 [Example 35, 4-{[(5-Chloro-1,3-thiazol-2-yl)amino]sulfonyl}-N-(3,4-dichlorobenzyl)benzamide]	40
O=C(NCc1ccc(C(F)(F)F)c(F)c1)c1ccc(S(=O)(=O)Nc2ncns2)cc1 [Example 323, N-[3-fluoro-4-(trifluoromethyl)benzyl]-4-[(1,2,4-thiadiazol-5-ylamino)sulfonyl]benzamide]	190
O=C(NCc1cccc(OC(F)(F)F)c1)c1ccc(S(=O)(=O)Nc2nccs2)cc1 [Example 73, 4-[(1,3-Thiazol-2-ylamino)sulfonyl]-N-[3-(trifluoromethoxy)benzyl]benzamide]	180
O=C(NCc1ccc(C(F)(F)F)cc1)c1ccc(S(=O)(=O)Nc2nccs2)cc1F [Example 325, 2-Fluoro-4-[(1,3-thiazol-2-ylamino)sulfonyl]-N-[4-(trifluoromethyl)benzyl]benzamide]	460
